According to ChEMBL document CHEMBL3856204, “Chiral 6-aryl-furo[2,3-d]pyrimidin-4-amines as EGFR inhibitors” (Eur J Med Chem, 2016):
pIC50: −log10 of the molar value.

Key:
[1] = target: Protein kinase C alpha type (Homo sapiens) (UniProt P17252); assay: Inhibition of recombinant full length human PRKCA expressed in baculovirus at 500 nM by Z'-LYTE assay
[2] = target: Protein kinase C beta type (Homo sapiens) (UniProt P05771); assay: Inhibition of recombinant full length human PRKCB1 expressed in baculovirus at 500 nM by Z'-LYTE assay
[3] = target: Testis-specific serine/threonine-protein kinase 2 (Homo sapiens) (UniProt Q96PF2); assay: Inhibition of His tagged recombinant full length human STK22B expressed in baculovirus at 500 nM by Z'-LYTE assay
[4] = target: Tyrosine-protein kinase Blk (Homo sapiens) (UniProt P51451); assay: Inhibition of His tagged recombinant full length human BLK expressed in baculovirus at 500 nM by Z'-LYTE assay
[5] = target: Receptor tyrosine-protein kinase erbB-4 (Homo sapiens) (UniProt Q15303); assay: Inhibition of GST tagged recombinant human ERBB4 cytoplasmic domain (708 to 993 residues) expressed in baculovirus at 500 nM by Z'-LYTE assay
[6] = target: Proto-oncogene tyrosine-protein kinase receptor Ret (Homo sapiens) (UniProt P07949); assay: Inhibition of GST tagged recombinant human RET cytoplasmic domain (658 to 1114 residues) expressed in baculovirus at 500 nM by Z'-LYTE assay
[7] = target: Ephrin type-A receptor 1 (Homo sapiens) (UniProt P21709); assay: Inhibition of GST tagged recombinant human EPHA1 cytoplasmic domain (568 to 976 residues) expressed in baculovirus at 500 nM by Z'-LYTE assay
[8] = target: Tyrosine-protein kinase Lyn (Homo sapiens) (UniProt P07948); assay: Inhibition of His tagged C-terminal recombinant full length human LYN B expressed in baculovirus at 500 nM by Z'-LYTE assay
[9] = target: Tyrosine-protein kinase Fyn (Homo sapiens) (UniProt P06241); assay: Inhibition of recombinant full length human C-terminal His-tagged FYN expressed in baculovirus at 500 nM by Z'-LYTE assay
[10] = target: Serine/threonine-protein kinase B-raf (Homo sapiens) (UniProt P15056); assay: Inhibition of GST tagged recombinant full length human BRAF expressed in baculovirus at 500 nM by Z'-LYTE assay
[11] = target: Tyrosine-protein kinase ABL1 (Homo sapiens) (UniProt P00519); assay: Inhibition of His tagged recombinant full length human ABL1 expressed in baculovirus at 500 nM by Z'-LYTE assay
[12] = target: Proto-oncogene tyrosine-protein kinase Src (Homo sapiens) (UniProt P12931); assay: Inhibition of recombinant full length human C-terminal His-tagged SRC expressed in baculovirus at 500 nM by Z'-LYTE assay
[13] = target: Epidermal growth factor receptor (Homo sapiens, UniProt P00533); assay: Inhibition of recombinant human GST-tagged EGFR cytoplasmic domain (668 to 1210 residues) expressed in baculovirus by Z'-LYTE assay
[14] = target: Receptor tyrosine-protein kinase erbB-2 (Homo sapiens) (UniProt P04626); assay: Inhibition of His tagged recombinant human ErbB2 cytoplasmic domain (676 to 1255 residues) expressed in baculovirus at 500 nM by Z'-LYTE assay
[15] = target: Mitogen-activated protein kinase 1 (Homo sapiens) (UniProt P28482); assay: Inhibition of GST tagged recombinant full length human ERK2 expressed in Escherichia coli at 500 nM by Z'-LYTE assay
[16] = target: Mitogen-activated protein kinase 8 (Homo sapiens) (UniProt P45983); assay: Inhibition of His tagged recombinant full length human JNK1 expressed in baculovirus at 500 nM by Z'-LYTE assay
[17] = target: Tyrosine-protein kinase CSK (Homo sapiens) (UniProt P41240); assay: Inhibition of His tagged recombinant full length human CSK expressed in Escherichia coli at 500 nM by Z'-LYTE assay
[18] = target: Tyrosine-protein kinase Lyn (Homo sapiens) (UniProt P07948); assay: Inhibition of recombinant full length human N-terminal GST tagged LYN A expressed in insect cells at 500 nM by Z'-LYTE assay
[19] = target: Vascular endothelial growth factor receptor 3 (Homo sapiens) (UniProt P35916); assay: Inhibition of GST tagged recombinant human FLT4 cytoplasmic domain (800 to 1297 residues) expressed in baculovirus at 500 nM by Z'-LYTE assay
[20] = target: Tyrosine-protein kinase FRK (Homo sapiens) (UniProt P42685); assay: Inhibition of GST tagged recombinant full length human FRK expressed in baculovirus at 500 nM by Z'-LYTE assay
[21] = target: Vascular endothelial growth factor receptor 1 (Homo sapiens) (UniProt P17948); assay: Inhibition of GST tagged recombinant human FLT1 cytoplasmic domain (781 to 1338 residues) expressed in baculovirus at 500 nM by Z'-LYTE assay
[22] = target: Macrophage colony-stimulating factor 1 receptor (Homo sapiens) (UniProt P07333); assay: Inhibition of His tagged recombinant human FMS cytoplasmic domain (538 to 910 residues) expressed in baculovirus at 500 nM by Z'-LYTE assay
[23] = target: Angiopoietin-1 receptor (Homo sapiens) (UniProt Q02763); assay: Inhibition of GST tagged recombinant human Tie2 cytoplasmic domain (817 to 1101 residues) expressed in baculovirus at 500 nM by Z'-LYTE assay
[24] = target: Mitogen-activated protein kinase 14 (Homo sapiens) (UniProt Q16539); assay: Inhibition of GST tagged recombinant full length human p38 alpha expressed in Escherichia coli at 500 nM by Z'-LYTE assay
[25] = target: Mast/stem cell growth factor receptor Kit (Homo sapiens) (UniProt P10721); assay: Inhibition of His tagged recombinant human KIT cytoplasmic domain (544 to 976 residues) expressed in baculovirus at 500 nM by Z'-LYTE assay
[26] = target: Tyrosine-protein kinase Fgr (Homo sapiens) (UniProt P09769); assay: Inhibition of recombinant full length human C-terminal His-tagged FGR expressed in baculovirus at 500 nM by Z'-LYTE assay
[27] = target: Serine/threonine-protein kinase pim-2 (Homo sapiens) (UniProt Q9P1W9); assay: Inhibition of GST tagged recombinant full length human PIM2 expressed in baculovirus at 500 nM by Z'-LYTE assay
[28] = target: Tyrosine-protein kinase JAK2 (Homo sapiens) (UniProt O60674); assay: Inhibition of GST tagged recombinant human JAK2 (809 to 1153 + 9 residues) expressed in baculovirus at 500 nM by Z'-LYTE assay

Chain of Tyrosine-protein kinase Lyn (Homo sapiens) (P07948 2-512 limits assumed): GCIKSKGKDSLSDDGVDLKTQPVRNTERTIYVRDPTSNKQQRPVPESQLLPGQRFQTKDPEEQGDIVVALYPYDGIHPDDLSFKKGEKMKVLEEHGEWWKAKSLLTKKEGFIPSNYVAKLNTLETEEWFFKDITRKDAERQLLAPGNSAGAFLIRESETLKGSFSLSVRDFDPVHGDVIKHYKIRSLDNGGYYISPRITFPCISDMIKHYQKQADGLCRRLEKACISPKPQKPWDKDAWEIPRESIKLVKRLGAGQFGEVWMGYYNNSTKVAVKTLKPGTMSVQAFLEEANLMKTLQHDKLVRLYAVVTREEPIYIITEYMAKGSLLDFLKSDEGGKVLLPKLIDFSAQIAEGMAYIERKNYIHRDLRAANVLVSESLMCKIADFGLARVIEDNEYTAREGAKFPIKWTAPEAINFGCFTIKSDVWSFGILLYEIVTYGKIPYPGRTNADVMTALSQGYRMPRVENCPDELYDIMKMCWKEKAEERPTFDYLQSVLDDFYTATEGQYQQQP
Chain of Mitogen-activated protein kinase 14 (Homo sapiens) (Q16539 whole entry, the tested form may be a part): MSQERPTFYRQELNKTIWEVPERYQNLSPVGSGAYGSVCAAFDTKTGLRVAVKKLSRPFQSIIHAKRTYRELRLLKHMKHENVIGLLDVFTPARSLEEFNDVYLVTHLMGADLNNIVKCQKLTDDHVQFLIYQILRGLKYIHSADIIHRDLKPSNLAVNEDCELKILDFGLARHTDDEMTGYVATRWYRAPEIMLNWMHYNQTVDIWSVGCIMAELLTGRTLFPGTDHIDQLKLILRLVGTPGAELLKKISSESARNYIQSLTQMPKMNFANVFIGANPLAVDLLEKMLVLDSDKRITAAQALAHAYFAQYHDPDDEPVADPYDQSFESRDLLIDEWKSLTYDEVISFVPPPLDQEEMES
Chain of Tyrosine-protein kinase Fgr (Homo sapiens) (P09769 2-529 limits assumed): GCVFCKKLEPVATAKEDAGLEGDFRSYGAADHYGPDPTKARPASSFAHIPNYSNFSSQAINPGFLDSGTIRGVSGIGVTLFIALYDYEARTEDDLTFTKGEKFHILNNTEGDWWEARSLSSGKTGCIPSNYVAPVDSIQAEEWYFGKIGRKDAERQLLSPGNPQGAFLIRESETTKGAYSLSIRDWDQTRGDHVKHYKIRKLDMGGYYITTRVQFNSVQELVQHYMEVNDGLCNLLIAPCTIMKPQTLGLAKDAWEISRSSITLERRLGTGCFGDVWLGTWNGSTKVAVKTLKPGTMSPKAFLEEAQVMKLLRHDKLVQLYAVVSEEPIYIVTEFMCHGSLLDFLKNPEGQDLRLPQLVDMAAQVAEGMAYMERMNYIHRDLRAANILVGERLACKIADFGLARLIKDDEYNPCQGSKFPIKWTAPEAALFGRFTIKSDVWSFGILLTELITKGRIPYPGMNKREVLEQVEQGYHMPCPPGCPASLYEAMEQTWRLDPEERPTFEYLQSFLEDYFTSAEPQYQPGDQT
Chain of Macrophage colony-stimulating factor 1 receptor (Homo sapiens) (P07333 whole entry, the tested form may be a part): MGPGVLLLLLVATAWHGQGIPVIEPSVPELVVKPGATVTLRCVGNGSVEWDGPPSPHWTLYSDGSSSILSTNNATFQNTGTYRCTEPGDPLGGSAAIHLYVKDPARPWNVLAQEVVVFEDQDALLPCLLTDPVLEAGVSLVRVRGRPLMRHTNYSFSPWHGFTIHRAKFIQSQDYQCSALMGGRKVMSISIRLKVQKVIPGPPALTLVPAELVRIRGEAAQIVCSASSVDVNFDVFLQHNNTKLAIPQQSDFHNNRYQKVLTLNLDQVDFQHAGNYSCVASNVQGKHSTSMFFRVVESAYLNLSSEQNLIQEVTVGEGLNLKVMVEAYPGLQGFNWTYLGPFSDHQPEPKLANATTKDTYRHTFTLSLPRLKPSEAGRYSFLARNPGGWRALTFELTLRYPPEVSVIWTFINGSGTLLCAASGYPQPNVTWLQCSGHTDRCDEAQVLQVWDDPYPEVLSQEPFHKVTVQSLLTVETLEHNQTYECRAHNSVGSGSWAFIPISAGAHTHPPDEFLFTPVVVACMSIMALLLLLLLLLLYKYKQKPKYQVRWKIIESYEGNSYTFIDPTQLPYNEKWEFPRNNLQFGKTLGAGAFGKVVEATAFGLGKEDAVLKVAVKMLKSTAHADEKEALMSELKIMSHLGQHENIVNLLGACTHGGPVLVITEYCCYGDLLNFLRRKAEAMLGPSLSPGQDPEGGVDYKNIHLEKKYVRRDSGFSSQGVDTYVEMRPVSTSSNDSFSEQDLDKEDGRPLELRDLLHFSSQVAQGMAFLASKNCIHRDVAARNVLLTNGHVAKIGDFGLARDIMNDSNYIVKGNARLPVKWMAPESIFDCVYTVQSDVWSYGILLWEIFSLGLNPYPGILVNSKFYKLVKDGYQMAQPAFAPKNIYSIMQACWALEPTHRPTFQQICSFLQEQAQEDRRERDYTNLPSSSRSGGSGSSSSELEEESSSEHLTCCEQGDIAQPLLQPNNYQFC
Chain of Vascular endothelial growth factor receptor 3 (Homo sapiens) (P35916 whole entry, the tested form may be a part): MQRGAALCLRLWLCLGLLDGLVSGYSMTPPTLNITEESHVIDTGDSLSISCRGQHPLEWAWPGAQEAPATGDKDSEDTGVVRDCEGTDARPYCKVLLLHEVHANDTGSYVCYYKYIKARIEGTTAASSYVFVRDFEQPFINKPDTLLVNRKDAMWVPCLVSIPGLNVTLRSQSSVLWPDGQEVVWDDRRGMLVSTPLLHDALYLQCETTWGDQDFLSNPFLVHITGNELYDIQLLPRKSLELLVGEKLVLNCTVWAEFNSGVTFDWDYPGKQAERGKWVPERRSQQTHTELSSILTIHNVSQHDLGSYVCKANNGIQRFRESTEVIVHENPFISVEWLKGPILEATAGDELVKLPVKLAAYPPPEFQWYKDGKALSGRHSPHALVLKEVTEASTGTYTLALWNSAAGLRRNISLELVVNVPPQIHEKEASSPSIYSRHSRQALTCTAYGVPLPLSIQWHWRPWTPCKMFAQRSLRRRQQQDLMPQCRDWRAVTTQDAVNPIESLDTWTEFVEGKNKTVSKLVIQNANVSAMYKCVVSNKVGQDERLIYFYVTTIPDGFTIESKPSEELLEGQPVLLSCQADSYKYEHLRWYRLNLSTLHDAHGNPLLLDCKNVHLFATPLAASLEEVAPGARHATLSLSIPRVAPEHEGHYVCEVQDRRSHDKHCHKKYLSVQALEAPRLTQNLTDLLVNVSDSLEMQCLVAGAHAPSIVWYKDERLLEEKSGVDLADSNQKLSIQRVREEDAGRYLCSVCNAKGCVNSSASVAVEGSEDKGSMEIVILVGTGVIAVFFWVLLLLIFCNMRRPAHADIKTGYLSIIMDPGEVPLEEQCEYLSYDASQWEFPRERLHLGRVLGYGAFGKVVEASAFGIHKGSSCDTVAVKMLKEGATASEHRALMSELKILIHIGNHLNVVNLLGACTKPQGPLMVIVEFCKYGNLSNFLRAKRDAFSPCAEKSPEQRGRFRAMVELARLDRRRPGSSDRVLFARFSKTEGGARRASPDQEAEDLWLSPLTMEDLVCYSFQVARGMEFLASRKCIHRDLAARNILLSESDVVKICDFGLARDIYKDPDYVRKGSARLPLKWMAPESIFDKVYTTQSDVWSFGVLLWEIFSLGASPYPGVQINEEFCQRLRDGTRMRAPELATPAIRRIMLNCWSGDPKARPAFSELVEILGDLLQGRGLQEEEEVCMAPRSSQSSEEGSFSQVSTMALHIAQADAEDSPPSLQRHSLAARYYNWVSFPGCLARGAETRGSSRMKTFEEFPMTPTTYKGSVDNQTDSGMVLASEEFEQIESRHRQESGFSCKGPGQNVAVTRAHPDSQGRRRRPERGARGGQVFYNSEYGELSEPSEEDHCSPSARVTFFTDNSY
Chain of Ephrin type-A receptor 1 (Homo sapiens) (P21709 whole entry, the tested form may be a part): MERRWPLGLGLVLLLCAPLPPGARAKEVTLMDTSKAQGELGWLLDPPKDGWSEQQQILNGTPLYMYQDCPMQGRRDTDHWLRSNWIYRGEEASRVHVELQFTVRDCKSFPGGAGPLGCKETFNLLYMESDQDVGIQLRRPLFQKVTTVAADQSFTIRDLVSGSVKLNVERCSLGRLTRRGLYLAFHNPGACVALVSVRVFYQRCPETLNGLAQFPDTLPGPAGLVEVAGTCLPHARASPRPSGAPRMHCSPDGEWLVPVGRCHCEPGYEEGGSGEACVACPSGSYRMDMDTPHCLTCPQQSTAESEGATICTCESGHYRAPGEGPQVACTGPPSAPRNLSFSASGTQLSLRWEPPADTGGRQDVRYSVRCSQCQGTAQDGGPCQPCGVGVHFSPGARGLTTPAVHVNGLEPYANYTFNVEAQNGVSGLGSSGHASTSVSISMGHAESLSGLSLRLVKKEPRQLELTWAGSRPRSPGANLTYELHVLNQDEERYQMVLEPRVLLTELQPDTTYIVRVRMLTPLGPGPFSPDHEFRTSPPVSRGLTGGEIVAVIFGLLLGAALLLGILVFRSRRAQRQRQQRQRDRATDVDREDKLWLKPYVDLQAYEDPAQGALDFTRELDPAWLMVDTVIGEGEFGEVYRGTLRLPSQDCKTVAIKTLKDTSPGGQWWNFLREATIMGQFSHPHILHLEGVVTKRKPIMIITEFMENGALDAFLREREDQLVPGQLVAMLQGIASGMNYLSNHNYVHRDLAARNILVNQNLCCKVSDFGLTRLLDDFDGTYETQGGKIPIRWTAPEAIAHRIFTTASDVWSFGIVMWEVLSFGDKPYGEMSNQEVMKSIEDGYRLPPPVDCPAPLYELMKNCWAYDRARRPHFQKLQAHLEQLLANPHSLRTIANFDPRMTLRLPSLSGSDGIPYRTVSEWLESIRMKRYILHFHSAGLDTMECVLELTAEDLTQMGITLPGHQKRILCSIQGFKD
Chain of Testis-specific serine/threonine-protein kinase 2 (Homo sapiens) (Q96PF2 whole entry): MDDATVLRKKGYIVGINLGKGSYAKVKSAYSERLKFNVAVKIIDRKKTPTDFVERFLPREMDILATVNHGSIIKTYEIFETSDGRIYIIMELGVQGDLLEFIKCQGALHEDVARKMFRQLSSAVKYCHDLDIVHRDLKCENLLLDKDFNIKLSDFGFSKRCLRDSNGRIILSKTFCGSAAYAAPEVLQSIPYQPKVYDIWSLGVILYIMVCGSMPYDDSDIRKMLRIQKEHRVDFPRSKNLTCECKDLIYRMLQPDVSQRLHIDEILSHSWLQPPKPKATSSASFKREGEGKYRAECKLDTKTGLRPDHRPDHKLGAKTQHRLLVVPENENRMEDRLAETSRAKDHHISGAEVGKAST

Row | Compound | inhibition [1] | inhibition [2] | inhibition [3] | inhibition [4] | inhibition [5] | inhibition [6] | inhibition [7] | inhibition [8] | inhibition [9] | inhibition [10] | inhibition [11] | inhibition [12] | pIC50 [13] | inhibition [14] | inhibition [15] | inhibition [16] | inhibition [17] | inhibition [18] | inhibition [19] | inhibition [20] | other results
1 | C#Cc1cccc(Nc2ncnc3cc(OCCOC)c(OCCOC)cc23)c1 | 2% | -2% |  |  |  |  |  |  |  |  |  |  |  |  |  |  |  |  |  |  | 
2 | C[C@@H](Nc1ncnc2oc(-c3ccc(NCCN4CCCCC4)cc3)cc12)c1ccccc1 |  |  | 2% | 0% | 18% | 11% | 34% | 46% | 12% | 9% | 30% | 17% | 9.22 | 15% | -1% | 6% | 8% | 37% | 4% | 21% | inhibition [21]: 1%; inhibition [22]: 78%; inhibition [23]: 8%; inhibition [24]: 16%; inhibition [25]: 7%; inhibition [26]: 56%
3 | C[C@@H](Nc1ncnc2oc(-c3ccc(NCCN(C)C)cc3)cc12)c1ccccc1 | -9% | -10% | -1% | 3% | 32% | 11% | 26% | 41% | 13% | 8% | 37% | 12% | 9.40 | 23% | -3% | 1% | 12% | 35% | 4% | 31% | inhibition [27]: -3%; inhibition [28]: -8%; inhibition [21]: -2%; inhibition [22]: 79%; inhibition [23]: 9%; inhibition [24]: 15%; inhibition [25]: 19%; inhibition [26]: 60%
